For 68 compounds, IC50 results are on record in PubChem BioAssay AID1361 (SRMLSC, 2008).

Activity calls are given as the source filed them. The rule behind the calls is not given here. Where only a bound is given, the exact number is not on record here.

By IC50 is commonly meant the concentration at which inhibition is half-maximal.

This assay is described as follows: mitochondrial fusion inhibitors, confirmation, cell-based, chemical genetic, wild-type and mutant (AID 1361). The following applies: Cell-based mitochondrial fusion phenotype, imaging.
Setting [1] is: mutant cells, measured here: mutant cell line IC50.

As to `Cc1ccc(O)c(-c2cc(-c3ccccc3[N+](=O)[O-])[nH]n2)c1`, the IC50 is > 25 µM (inactive) (WT cells) and above 25 µM under setting [1].

As for `O=S(=O)(NCC(Nc1ccc(Cl)cc1)c1ccccc1)c1ccccc1` (stereo unspecified), the half-maximal inhibitory concentration (IC50) is, setting by setting: (WT cells) 13.9 µM; under setting [1], above 25 µM.

Take `O=C(NC(=S)Nc1ccccc1N1CCCCC1)c1ccccc1`: the IC50 (WT cells) is 24.9 µM (inactive) and the IC50 under setting [1] was above 25 µM.

As to `CC(=O)N1CCC(O)(c2cccc(C(F)(F)F)c2)CC1`, the IC50 by setting is: (WT cells) > 25 µM (inactive); under setting [1], above 25 µM.

Turning to `Cc1nc(-c2ccccc2)sc1-c1nc(-c2ccncc2)ncc1S(=O)(=O)c1ccccc1`, the IC50 is 10.5 µM (WT cells) and above 25 µM under setting [1].

With `CCN(c1ccccc1)S(=O)(=O)c1cnc[nH]1`, the IC50 runs as follows: (WT cells) > 25 µM (inactive); under setting [1], above 25 µM.

Regarding `N/C(Cc1ccccc1)=N\OC(=O)c1cccc2ccccc12`, the IC50 was 14.8 µM (inactive) (WT cells) and 14.6 µM under setting [1].

As to `CCCn1c(CN(Cc2ccccc2)Cc2ccccc2)nc2c1c(=O)n(C)c(=O)n2C`, the IC50 reads like this: (WT cells) 20.6 µM; under setting [1], above 25 µM.

Take `O=C(Nn1c(C2CCCCC2)nc2ccccc2c1=O)c1ccc(Cl)c([N+](=O)[O-])c1`: the IC50 is, setting by setting: (WT cells) 14.8 µM; under setting [1], above 25 µM.

With `Cc1cc(Oc2ccc(C(C)(C)C)cc2)nc(N2CCOCC2)n1`, the IC50 is 19.9 µM (WT cells) and above 25 µM under setting [1].

Regarding `CC(C)COC(=O)c1cccc2c1-c1ccccc1/C2=N\O`, the IC50 runs as follows: (WT cells) > 25 µM (inactive); under setting [1], above 25 µM.

On to `CC(C(=O)Nc1ccc(Cl)cc1Cl)N1CC=C(c2ccccc2)CC1` (stereo unspecified), for which the IC50 was 8.63 µM (WT cells) and 13.3 µM under setting [1].

Take `Cc1ccc(/C=N/n2cnc3sc(-c4ccccc4)cc3c2=O)o1`: the IC50 (WT cells) was > 25 µM (inactive) and the IC50 under setting [1] was above 25 µM.

As to `CC1(C)C=C2[C@H]3CC[C@@H]4[C@@]5(C)CCC(=O)C(C)(C)[C@@H]5CC[C@@]4(C)[C@]3(C)CC[C@@]2(C(=O)O)CC1`, the IC50 (WT cells) is 21.9 µM and the IC50 under setting [1] was above 25 µM.

Turning to `C=CCn1c(N)c(C(=O)OCC(C)C)c2nc3ccccc3nc21`, the IC50 by setting is: (WT cells) > 25 µM (inactive); under setting [1], above 25 µM.

In the case of `COC(=O)C1CCN(C(=O)c2cc(OC)c(OC)c(OC)c2)CC1`, the IC50 was > 25 µM (inactive) (WT cells) and above 25 µM under setting [1].

For the compound `O=C1C(Cl)=C(NC2CCCCC2)C(=O)N1Cc1ccccc1`, the concentration for half-maximal inhibition (IC50) by setting is: (WT cells) 19.1 µM; under setting [1], above 25 µM.

As to `Cc1ccc(/C=C/C(=O)N2CCC(Cc3ccccc3)CC2)cc1`, the IC50 is, setting by setting: (WT cells) 15.1 µM; under setting [1], above 25 µM.

`CCCCOc1c(Br)cc(/C=N/O)cc1OCC`: the IC50 by setting is: (WT cells) > 25 µM (inactive); under setting [1], above 25 µM.

With `CCCCc1nc(NCCN)c(C#N)c2c1CSC(C)(C)C2`, the IC50 by setting is: (WT cells) 21.7 µM; under setting [1], above 25 µM.

In the case of `CC(C)(C)n1nnnc1C(c1ccc(Cl)cc1)N(Cc1cccnc1)Cc1ccco1` (stereo unspecified), the IC50 is > 25 µM (inactive) (WT cells) and above 25 µM under setting [1].

As to `O=C(N/N=C/C=C/c1ccccc1)C1CC1c1ccccc1` (stereo unspecified), the IC50 runs as follows: (WT cells) > 25 µM (inactive); under setting [1], above 25 µM.

Take `COc1ccccc1CN=Cc1[nH]c2ccc(Br)c(Cl)c2c1O`: the IC50 was > 25 µM (inactive) (WT cells) and above 25 µM under setting [1].

`CC(C)Cn1c(CN(Cc2ccccc2)Cc2ccccc2)nc2c1c(=O)n(C)c(=O)n2C`: the IC50 (WT cells) is 11.5 µM and the IC50 under setting [1] is above 25 µM.

Consider `COc1ccc(CC(=O)N2CCOCC2)cc1OC`, for which the IC50 (WT cells) was > 25 µM (inactive) and the IC50 under setting [1] is above 25 µM.

As for `COC(=O)CNC(c1ccccc1)c1cc(C)ccc1NC(=O)c1cccc(Cl)c1` (stereo unspecified), the 50% inhibitory concentration (IC50) by setting is: (WT cells) 9.38 µM; under setting [1], above 25 µM.

In the case of `CCOc1ccc(NC(=S)N(CCc2c(C)[nH]c3ccc(C)cc23)Cc2ccco2)cc1`, the IC50 runs as follows: (WT cells) 6.2 µM; under setting [1], above 25 µM.

With `O=C(C1CCCCC1)N(Cc1ccccc1)c1ccccn1`, the IC50 reads like this: (WT cells) > 25 µM (inactive); under setting [1], above 25 µM.

As for `COc1ccc(Br)cc1CN(C)CC(=O)Nc1cc(Cl)cc(Cl)c1`, the IC50 was 9.17 µM (WT cells) and 22.1 µM under setting [1].

With `CCc1ccccc1NC(=S)N=Nc1c(O)n(C)c2ccc(S(=O)(=O)N3CCOCC3)cc12`, the IC50 was 1.37 µM (WT cells) and 9.5 µM under setting [1].

In the case of `Cc1cccc(-n2c(CCc3ccccc3)nnc2SCC(=O)c2ccccc2)c1`, the IC50 is 20.6 µM (WT cells) and above 25 µM under setting [1].

Regarding `O=C(CCN1C(=O)/C(=C\c2cccs2)SC1=S)NC1=NCCS1`, the IC50 reads like this: (WT cells) 8.36 µM; under setting [1], 17.6 µM.

Turning to `CCCOc1ccc(C2C(C(=O)c3ccco3)=C(O)C(=O)N2CCN2CCOCC2)cc1OC` (stereo unspecified), the IC50 reads like this: (WT cells) > 25 µM (inactive); under setting [1], above 25 µM.

As for `C=CCN1C(=O)C(CC(=O)Nc2ccc(OCCC)cc2)N(CCCN2CCN(Cc3ccccc3)CC2)C1=S` (stereo unspecified), the IC50 by setting is: (WT cells) > 25 µM (inactive); under setting [1], above 25 µM.

Regarding `COc1nc(SC)nc(Cl)c1Cc1ccc(OC(C)C)cc1`, the IC50 runs as follows: (WT cells) 24.1 µM; under setting [1], above 25 µM.

Take `Cc1ccc(N=Cc2c(O)n(-c3ccc4c(c3)OCO4)c(=O)c3ccccc23)cc1`: the IC50 runs as follows: (WT cells) > 25 µM (inactive); under setting [1], above 25 µM.

On to `Cn1c(Cc2ccccc2)nnc1SCC(=O)c1ccc(Br)s1`, for which the IC50 runs as follows: (WT cells) > 25 µM (inactive); under setting [1], above 12.5 µM.

Consider `CC(C)(O)[C@H]1O[C@H]2CC[C@@]3(C)[C@@](O)(CC[C@H]4Cc5c([nH]c6ccccc56)[C@@]43C)C2=CC1=O`, for which the IC50 (WT cells) was 11.2 µM and the IC50 under setting [1] is above 25 µM.

As for `O=C(NCC(c1cccnc1)N1CCOCC1)c1ccco1` (stereo unspecified), the IC50 by setting is: (WT cells) > 25 µM (inactive); under setting [1], above 25 µM.

Turning to `Cc1ccc2c(c1)c1c(n2CC(O)Cn2nc(C)c(Br)c2C)CCCC1` (stereo unspecified), the IC50 reads like this: (WT cells) 12.3 µM; under setting [1], 22.8 µM.

In the case of `Oc1ccccc1-c1nc(/C=C/c2ccccc2)nn1-c1ccccc1`, the IC50 is 11.2 µM (WT cells) and 15.4 µM under setting [1].

Turning to `COc1cccc(-c2nc(-c3ccccn3)no2)c1`, the IC50 is > 25 µM (inactive) (WT cells) and above 25 µM under setting [1].

As to `COC(=O)C1=C(O)/C(=C\c2ccc(CNC(=O)C(=O)Nc3ccc(C)cc3)o2)N=C1C`, the IC50 is, setting by setting: (WT cells) > 25 µM (inactive); under setting [1], above 25 µM.

In the case of `CC(C)(C)n1nnnc1C(c1cccnc1)N(Cc1ccccc1)Cc1cccs1` (stereo unspecified), the IC50 runs as follows: (WT cells) 9.97 µM; under setting [1], above 25 µM.

Take `Cc1ccc(O)c(C(=O)/C=C/c2ccc3c(c2)OCCCO3)c1`: the IC50 is 12.3 µM (WT cells) and above 25 µM under setting [1].

For the compound `Cc1ccc(SC(C)C(=O)Nc2ccccc2-c2ccccc2)cc1` (stereo unspecified), the IC50 (WT cells) was 19.8 µM and the IC50 under setting [1] is above 25 µM.

On to `CCOC(=O)c1c(C)n(-c2ccc(C)cc2)c2ccc(OCC(O)CNCC3CCCO3)cc12` (stereo unspecified), for which the IC50 is 15 µM (WT cells) and above 25 µM under setting [1].

Turning to `CC(=O)Nc1cccc(Oc2ncnc3scc(-c4ccc(C(C)C)cc4)c23)c1`, the IC50 is, setting by setting: (WT cells) 14.5 µM; under setting [1], above 25 µM.

`COc1cc(CNn2cn[nH]c2=S)cc(Cl)c1OCc1ccc(F)cc1`: the IC50 is 21.2 µM (WT cells) and above 25 µM under setting [1].

For the compound `COC(=O)c1ccc(CSc2nc3ccccc3c(=O)n2CC(C)C)o1`, the IC50 reads like this: (WT cells) > 25 µM (inactive); under setting [1], above 25 µM.

`CC(C)(C)n1nnnc1C(c1cccs1)N1CCCC2(CCCCC2)C1` (stereo unspecified): the IC50 reads like this: (WT cells) 4.86 µM; under setting [1], above 25 µM.

In the case of `CCCCOC(=O)c1ccc(NC(=O)c2ccccc2OC)cc1`, the IC50 runs as follows: (WT cells) > 25 µM (inactive); under setting [1], above 25 µM.

As to `COc1ccc(NC(=S)N(CCCN2CCCC2)Cc2cccn2Cc2ccc(Cl)cc2)cc1Cl`, the IC50 was 10.9 µM (WT cells) and 23.2 µM under setting [1].

For the compound `COc1ccccc1N1CCN(C(=O)c2ccc(CSc3ccccc3)cc2)CC1`, the half-maximal inhibitory concentration (IC50) runs as follows: (WT cells) 15.4 µM; under setting [1], above 25 µM.

Take `CCCCSc1cnn(-c2ccccc2)c(=O)c1SCCCC`: the IC50 (WT cells) is 12.7 µM and the IC50 under setting [1] was above 25 µM.

In the case of `COCCN(C(=S)Nc1ccc(C(C)C)cc1)C(C)c1cccs1` (stereo unspecified), the IC50 (WT cells) is > 25 µM (inactive) and the IC50 under setting [1] was above 25 µM.

As to `O=C(CC(Nc1ccc(F)cc1)c1ccccc1)c1ccccc1` (stereo unspecified), the IC50 by setting is: (WT cells) 16.5 µM; under setting [1], above 25 µM.

`COC(=O)C1=C(CSc2nc3ccccc3o2)NC(=O)NC1c1cc(C)ccc1C` (stereo unspecified): the IC50 by setting is: (WT cells) > 25 µM (inactive); under setting [1], above 25 µM.

As to `COc1cc(Nc2nc(-c3ccccc3)c3cc(C)ccc3n2)cc(OC)c1OC`, the IC50 runs as follows: (WT cells) 10.6 µM; under setting [1], above 25 µM.

For the compound `COc1ccccc1N(CC(O)COc1c(C)cc(C)cc1C)S(=O)(=O)c1ccccc1` (stereo unspecified), the IC50 is 16.1 µM (WT cells) and above 25 µM under setting [1].

As for `O=C(CCC1N=C2c3ccccc3N=C(SCc3cccc(Cl)c3)N2C1=O)NCc1ccco1` (stereo unspecified), the IC50 reads like this: (WT cells) > 25 µM (inactive); under setting [1], above 25 µM.

Regarding `Cc1cc(Br)ccc1NC(=O)CN1C(=O)C2C3CC(c4ccccc4)C(C3)C2C1=O` (stereo unspecified), the IC50 runs as follows: (WT cells) 20.4 µM; under setting [1], above 25 µM.

As for `Cc1cccn2c(=O)c(C=NCc3ccco3)c(Nc3ccc(SC(F)F)cc3)nc12`, the IC50 is, setting by setting: (WT cells) > 25 µM (inactive); under setting [1], above 25 µM.

With `Cc1cc(Cl)ccc1OC(C)C(=O)Nc1ccccc1N1CCOCC1` (stereo unspecified), the IC50 (WT cells) was 21.1 µM and the IC50 under setting [1] is above 25 µM.

As to `O=C(CN1CCN(S(=O)(=O)c2ccc(Cl)s2)CC1)NCc1ccc(Cl)cc1`, the IC50 by setting is: (WT cells) > 25 µM (inactive); under setting [1], above 25 µM.

Turning to `O=S(=O)(NCCOCCNS(=O)(=O)c1ccccc1)c1ccccc1`, the IC50 runs as follows: (WT cells) > 25 µM (inactive); under setting [1], above 25 µM.

Take `Fc1ccc(C(CCCn2nnc(-c3cccnc3)n2)c2ccc(F)cc2)cc1`: the IC50 (WT cells) was 21.9 µM and the IC50 under setting [1] is above 25 µM.

For the compound `CC(C)(C)c1ccc(NC(=O)c2ccccc2)c([N+](=O)[O-])c1`, the IC50 by setting is: (WT cells) 24.9 µM (inactive); under setting [1], above 25 µM.
